What follows are molecules tested against T1, human TRPV4 (Homo sapiens, UniProt Q9HBA0) (assay: Ligand-gated assay (Fluo4 calcium, FLIPR; inhibition of agonist-induced activation)). Conditions: HEK-293-MSR-II cells transduced with BacMam human TRPV4; agonist at EC80.
T1 construct: expressed in transfected cells; host or cells: HEK-293-MSR-II cells transduced with 1% BacMam virus
T1 sequence (Q9HBA0 whole entry): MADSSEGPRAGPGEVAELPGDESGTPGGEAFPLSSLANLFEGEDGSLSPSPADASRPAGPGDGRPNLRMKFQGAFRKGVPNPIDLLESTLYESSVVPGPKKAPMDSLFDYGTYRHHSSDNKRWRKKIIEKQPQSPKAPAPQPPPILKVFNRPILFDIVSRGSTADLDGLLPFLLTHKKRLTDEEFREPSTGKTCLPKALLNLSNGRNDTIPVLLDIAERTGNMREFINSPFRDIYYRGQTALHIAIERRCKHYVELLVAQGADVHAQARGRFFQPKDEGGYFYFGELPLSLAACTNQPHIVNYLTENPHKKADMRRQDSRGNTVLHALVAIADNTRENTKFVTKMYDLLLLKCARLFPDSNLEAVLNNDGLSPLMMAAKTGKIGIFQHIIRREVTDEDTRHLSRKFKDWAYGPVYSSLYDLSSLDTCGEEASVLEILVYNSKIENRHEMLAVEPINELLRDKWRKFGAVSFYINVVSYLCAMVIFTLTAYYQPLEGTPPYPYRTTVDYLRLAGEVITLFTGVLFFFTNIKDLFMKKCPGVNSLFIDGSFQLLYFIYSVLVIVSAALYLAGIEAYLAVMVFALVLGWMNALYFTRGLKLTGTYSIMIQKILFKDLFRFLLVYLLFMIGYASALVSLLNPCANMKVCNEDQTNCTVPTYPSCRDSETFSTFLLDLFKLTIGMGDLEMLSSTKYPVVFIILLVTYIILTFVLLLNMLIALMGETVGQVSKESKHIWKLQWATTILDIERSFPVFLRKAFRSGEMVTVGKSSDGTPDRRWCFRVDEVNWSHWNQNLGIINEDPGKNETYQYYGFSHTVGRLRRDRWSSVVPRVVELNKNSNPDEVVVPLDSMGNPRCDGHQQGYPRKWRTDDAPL
Assay type: cell-based
Procedure: TRP channel activation/opening results in an influx of divalent and monovalent cations including calcium. The resulting changes in intracellular calcium were monitored using a calcium selective fluorescent dye Fluo4 (MDS Analytical Technologies). Dye loaded cells were initially exposed to test compound to verify a lack of agonist activity. Cells were subsequently activated by addition of an agonist and inhibition of the agonist-induced activation was recorded. Human embryonic kidney 293 cells stably expressing the macrophage scavenger receptor class II (HEK-293-MSR-II) and transduced with 1% BacMam (J. P. Condreay, S. M. Witherspoon, W. C. Clay and T. A. Kost, Proc Natl Acad Sci 96 (1999), pp. 127-132) virus expressing the human TRPV4 gene were plated at 15000 cells/well in a volume of 50 μL in a 384 well poly-D lysine coated plate. Cells were incubated for 24 hours at 37 degrees and 5% CO2. Media was then aspirated using a Tecan Plate-washer and replaced with 20 μL of dye loading buffer: HBSS, 500 uM Brilliant Black (MDS Analytical Technologies), 2 uM Fluo-4. Dye loaded plates were then incubated in the dark at room temperature for 1-1.5 hours. 10 μL of test compound diluted in HBSS (HBSS with 1.5 mM Calcium Chloride, 1.5 mM Magnesium Chloride and 10 mM HEPES. pH 7.4), +0.01% Chaps was added to the plate, incubated for 10 min at room temperature in the dark and then 10 μL of agonist was added at a final concentration equal to the agonist EC80. Calcium release was measured using the FLIPRtetra (MDS Analytical Technologies) or FLIPR384 (MDS Analytical Technologies).
IC50 between 0.1-10 nM (+++), >10-50 nM (++), >50-500 nM (+).
COc1ccc(-c2csc(CN3C[C@@]4(CCC[C@H](Cn5cnc6ccc(C#N)cc65)C4)OC3=O)n2)cc1C [Example 70, 1-{[(5S,7S)-3-({4-[3-methyl-4-(methyloxy)phenyl]-1,3-thiazol-2-yl}methyl)-2-oxo-1-oxa-3-azaspiro[4.5]dec-7-yl]methyl}-1H-benzimidazole-6-carbonitrile] gave an IC50 of 0.1 to 10 nM. CCOc1cc(C)c(N2C[C@@]3(CCC[C@H](Cn4cnc5ccc(C#N)cc54)C3)OC2=O)cn1 [Example 23, 1-(((5S,7S)-3-(6-Ethoxy-4-methylpyridin-3-yl)-2-oxo-1-oxa-3-azasbiro[4.5]decan-7-yl)methyl)-1H-benzo[d]imidazole-6-carbonitrile] was tested, and the IC50 was 10 to 50 nM. CCOc1ccc(N2C[C@@]3(CCC[C@](C)(Cn4cnc5ccc(C#N)cc54)C3)OC2=O)cn1 [Example 12, ′1-({(5S,7S)-3-[6-(Ethyloxy)-3-pyridinyl]-7-methyl-2-oxo-1-oxa-3-azaspiro[4.5]dec-7-yl}methyl)-1H-benzimidazole-6-carbonitrile] gave an IC50 of 0.1 to 10 nM. In the case of Cc1ccncc1N1C[C@@]2(CCC[C@](C)(Cn3cnc4ccc(C#N)cc43)C2)OC1=O [Example 146, 1-(((5S,7S)-7-methyl-3-(4-methylpyridin-3-yl)-2-oxo-1-oxa-3-azaspiro[4.5]decan-7-yl)methyl)-1H-benzo[d]imidazole-6-carbonitrile], the IC50 is reported as 0.1 to 10 nM. In the case of COC(C)(C)c1ccc(N2C[C@@]3(CCC[C@](C)(Cn4cnc5ccc(C#N)cc54)C3)OC2=O)cn1 [Example 55, 1-(((5S,7S)-3-(6-(2-methoxypropan-2-yl)pyridin-3-yl)-7-methyl-2-oxo-1-oxa-3-azaspiro[4.5]decan-7-yl)methyl)-1H-benzo[d]imidazole-6-carbonitrile], the IC50 is reported as 0.1 to 10 nM. CC(C)(F)c1cc(N2C[C@@]3(CCC[C@](C)(Cn4cnc5ccc(C#N)cc54)C3)OC2=O)on1 [Example 39, 1-(((5S,7S)-3-(3-(2-fluoropropan-2-yl)isoxazol-5-yl)-7-methyl-2-oxo-1-oxa-3-azaspiro[4.5]decan-7-yl)methyl)-1H-benzo[d]imidazole-6-carbonitrile] showed an IC50 of 0.1 to 10 nM. Work on CC(C)(O)c1ccc(N2C[C@@]3(CCC[C@](C)(Cn4cnc5ccc(C#N)cc54)C3)OC2=O)nc1 [Example 167, 1-(((5S,7S)-3-(5-(2-hydroxypropan-2-yl)pyridin-2-yl)-7-methyl-2-oxo-1-oxa-3-azaspiro[4.5]decan-7-yl)methyl)-1H-benzo[d]imidazole-6-carbonitrile] yielded an IC50 of 0.1 to 10 nM. C=C(C)c1cc(N2C[C@@]3(CCC[C@](C)(Cn4cnc5ccc(C#N)cc54)C3)OC2=O)on1 [Example 56, 1-(((5S,7S)-7-methyl-2-oxo-3-(3-(prop-1-en-2-yl)isoxazol-5-yl)-1-oxa-3-azaspiro[4.5]decan-7-yl)methyl)-1H-benzo[d]imidazole-6-carbonitrile] was tested, and the IC50 was 10 to 50 nM. Cc1cc(Cl)ncc1N1C[C@@]2(CCC[C@H](Cn3cnc4ccc(C#N)cc43)C2)OC1=O [Example 120, 1-(((5S,7S)-3-(6-chloro-4-methylpyridin-3-yl)-2-oxo-1-oxa-3-azaspiro[4.5]decan-7-yl)methyl)-1H-benzo[d]imidazole-6-carbonitrile] showed an IC50 of 0.1 to 10 nM. Molecule Cc1noc(C(C)(C)CN2C[C@@]3(CCC[C@H](Cn4cnc5ccc(C#N)cc54)C3)OC2=O)n1 [Example 74, 1-({(5S,7S)-3-[2-methyl-2-(3-methyl-1,2,4-oxadiazol-5-yl)propyl]-2-oxo-1-oxa-3-azaspiro[4.5]dec-7-yl}methyl)-1H-benzimidazole-6-carbonitrile] has an IC50 of 10 to 50 nM. N#Cc1ccc2ncn(C[C@H]3CCC[C@]4(C3)CN(Cc3cn(-c5ccc(C#N)c(C(F)(F)F)c5)nn3)C(=O)O4)c2c1 [Example 98, 1-{[(5S,7S)-3-({1-[4-cyano-3-(trifluoromethyl)phenyl]-1H-1,2,3-triazol-4-yl}methyl)-2-oxo-1-oxa-C azaspiro[4.5]dec-7-yl]methyl}-1H benzimidazole-6-carbonitrile] gave an IC50 of 0.1 to 10 nM. C[C@]1(Cn2cnc3ccc(C#N)cc32)CCC[C@@]2(CN(c3ncccc3Cl)C(=O)O2)C1 [Example 137, 1-{[(5S,7S)-3-(3-chloro-2-pyridinyl)-7-methyl-2-oxo-1-oxa-3-azaspiro[4.5]dec-7-yl]methyl}-1H-benzimidazole-6-carbonitrile] showed an IC50 of 10 to 50 nM. With C[C@]1(Cn2cnc3ccc(C#N)cc32)CCC[C@@]2(CN(c3ncc(C(F)(F)F)cn3)C(=O)O2)C1 [Example 54, 1-(((5S,7S)-7-methyl-2-oxo-3-(5-(trifluoromethyl)pyrimidin-2-yl)-1-oxa-3-azaspiro[4.5]decan-7-yl)methyl)-1H-benzo[d]imidazole-6-carbonitrile] the IC50 was 50 to 500 nM. N#Cc1ccc2ncn(C[C@H]3CCC[C@]4(C3)CN(Cc3csc5ccccc35)C(=O)O4)c2c1 (stereo in doubt) [Example 62, 1-{[3-(1-benzothien-3-ylmethyl)-2-oxo-1-oxa-3-azaspiro[4.5]dec-7-yl]methyl}-1H-benzimidazole-6-carbonitrile] gave an IC50 of 10 to 50 nM. N#Cc1cc(Cl)cc(-n2cc(CN3C[C@@]4(CCC[C@H](Cn5cnc6ccc(C#N)cc65)C4)OC3=O)nn2)c1 [Example 99, 1-[((5S,7S)-3-{[1-(3-chloro-5-cyanophenyl)-1H-1,2,3-triazol-4-yl]methyl}-2-oxo-1-oxa-3-azaspiro[4.5]dec-7-yl)methyl]-1H-benzimidazole-6-carbonitrile] gave an IC50 of 0.1 to 10 nM. Work on N#Cc1ccc2ncn(C[C@H]3CCC[C@]4(C3)CN(Cc3cn(-c5ccccc5)nn3)C(=O)O4)c2c1 [Example 87, 1-({(5S,7S)-2-oxo-3-[(1-phenyl-1H-1,2,3-triazol-4-yl)methyl]-1-oxa-3-azaspiro[4.5]dec-7-yl}methyl]-1H-benzimidazole-6-carbonitrile] yielded an IC50 of 10 to 50 nM. C[C@]1(Cn2cnc3ccc(C#N)cc32)CCC[C@@]2(CN(c3ncccc3C(F)(F)F)C(=O)O2)C1 [Example 26, 1-(((5S,7S)-7-Methyl-2-oxo-3-(3-(trifluoromethyl)pyridin-2-yl)-1-oxa-3-azaspiro[4.5]decan-7-yl)methyl)-1H-benzo[d]imidazole-6-carbonitrile] gave an IC50 of 50 to 500 nM. With COc1cc(C)c(N2C[C@@]3(CCC[C@](CO)(Cn4cnc5ccc(C#N)cc54)C3)OC2=O)cn1 [Example 143, 1-((7-(hydroxymethyl)-3-(6-methoxy-4-methylpyridin-3-yl)-2-oxo-1-oxa-3-azaspiro[4.5]decan-7-yl)methyl)-1H-benzo[d]imidazole-6-carbonitrile] the IC50 was 10 to 50 nM. COC(C)(C)c1cnc(N2C[C@@]3(CCC[C@](C)(Cn4cnc5ccc(C#N)cc54)C3)OC2=O)cn1 [Example 162, 1-(((5S,7S)-3-(5-(2-methoxypropan-2-yl)pyrazin-2-yl)-7-methyl-2-oxo-1-oxa-3-azaspiro[4.5]decan-7-yl)methyl)-1H-benzo[d]imidazole-6-carbonitrile] was tested, and the IC50 was 0.1 to 10 nM. CC(C)(C)OC(=O)OCC(C)(C)c1cc(N2C[C@@]3(CCC[C@](C)(Cn4cnc5ccc(C#N)cc54)C3)OC2=O)on1 [Example 20, Tert-butyl (2-(5-((5S,7S)-7-((6-cyano-1H-benzo[d]imidazol-1-yl)methyl)-7-methyl-2-oxo-1-oxa-3-azaspiro[4.5]decan-3-yl)isoxazol-3-yl)-2-methylpropyl) carbonate] was tested, and the IC50 was 0.1 to 10 nM. CCOc1cc(C)c(N2C[C@@]3(CCC[C@](C)(Cn4cnc5ccc(C#N)cc54)C3)OC2=O)cn1 [Example 118, 1-(((5S,7S)-3-(6-ethoxy-4-methylpyridin-3-yl)-7-methyl-2-oxo-1-oxa-3-azaspiro[4.5]decan-7-yl)methyl)-1H-benzo[d]imidazole-6-carbonitrile] was tested, and the IC50 was 0.1 to 10 nM. Molecule CC(C)(CN1C[C@@]2(CCC[C@H](Cn3cnc4ccc(C#N)cc43)C2)OC1=O)c1nc(C2CCCC2)no1 [Example 77, 1-({(5S,7S)-3-[2-(3-cyclopentyl-1,2,4-oxadiazol-5-yl)-2-methylpropyl]-2-oxo-1-oxa-3-azaspiro[4.5]dec-7-yl}methyl)-1H-benzimidazole-6-carbonitrile] has an IC50 of 0.1 to 10 nM. Cc1cc(Cl)cnc1N1C[C@@]2(CCC[C@](C)(Cn3cnc4ccc(C#N)cc43)C2)OC1=O [Example 121, 1-(((5S,7S)-3-(5-chloro-3-methylpyridin-2-yl)-7-methyl-2-oxo-1-oxa-3-azaspiro[4.5]decan-7-yl)methyl)-1H-benzo[d]imidazole-6-carbonitrile] was tested, and the IC50 was 0.1 to 10 nM. Work on COc1ccncc1N1C[C@@]2(CCC[C@](C)(Cn3cnc4ccc(C#N)cc43)C2)OC1=O [Example 149, 1-(((5S,7S)-3-(4-methoxypyridin-3-yl)-7-methyl-2-oxo-1-oxa-3-azaspiro[4.5]decan-7-yl)methyl)-1H-benzo[d]imidazole-6-carbonitrile] yielded an IC50 of 50 to 500 nM. Work on Cc1cnc(N2C[C@@]3(CCC[C@](C)(Cn4cnc5ccc(C#N)cc54)C3)OC2=O)c(Cl)c1 [Example 128, 1-(((5S,7S)-3-(3-chloro-5-methylpyridin-2-yl)-7-methyl-2-oxo-1-oxa-3-azaspiro[4.5]decan-7-yl)methyl)-1H-benzo[d]imidazole-6-carbonitrile] yielded an IC50 of 0.1 to 10 nM.
